This is an account of results in patent publication US20220153751A1, “BIFUNCTIONAL COMPOUNDS” (BioTheryX, Inc., priority 2018, published 2022).

Type in all cases: cell-based
One assay concerns the target T1, IKAROS (Homo sapiens, UniProt Q13422+Q96SW2).
T1 construct: endogenous in cells; host or cells: MV-4-11
The assay can be described thus: IKAROS degradation assay (Western blot, MV-4-11 cells). Conditions: MV4-11, 6-8 h. The procedure, abridged: (§1)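 Cells at about 10^6 per mL were exposed to compound or DMSO for 6-8 h, lysed in RIPA buffer, and analysed by SDS-PAGE Western blot with IRDye secondary antibodies on an Odyssey imager. Values are % degradation binned as A <25%, B 25-<50%, C 50-<75%, D ≥75%.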

Another assay addresses T2, CK1α (Homo sapiens, UniProt P48729+Q96SW2).
T2 construct: Whole cell extracts were prepared using RIPA buffer; endogenous in cells; host or cells: MV-4-11
The assay can be described thus: CK1α degradation assay (Western blot, MV-4-11 cells). Conditions: MV4-11, 6-8 h. The procedure, abridged:
as §1

The target of another assay is T3, GSPT1 (Homo sapiens, UniProt P15170+Q96SW2).
T3 construct: Whole cell extracts were prepared using RIPA buffer; endogenous in cells; host or cells: MV-4-11
T3 sequence (P15170 whole entry): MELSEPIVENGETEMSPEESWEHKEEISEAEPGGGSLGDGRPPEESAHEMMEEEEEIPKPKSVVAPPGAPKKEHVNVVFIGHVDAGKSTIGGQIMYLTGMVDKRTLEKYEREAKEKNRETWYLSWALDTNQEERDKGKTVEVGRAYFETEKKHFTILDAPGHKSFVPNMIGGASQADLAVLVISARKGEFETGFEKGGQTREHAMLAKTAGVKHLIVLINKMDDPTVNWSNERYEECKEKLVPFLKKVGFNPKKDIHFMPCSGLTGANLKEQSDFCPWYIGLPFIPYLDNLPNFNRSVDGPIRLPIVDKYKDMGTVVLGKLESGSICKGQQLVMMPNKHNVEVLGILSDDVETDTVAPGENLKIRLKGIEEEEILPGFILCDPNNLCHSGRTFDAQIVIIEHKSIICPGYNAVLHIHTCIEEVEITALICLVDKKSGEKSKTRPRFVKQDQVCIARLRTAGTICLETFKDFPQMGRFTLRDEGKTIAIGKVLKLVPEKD
T3 sequence (Q96SW2 whole entry): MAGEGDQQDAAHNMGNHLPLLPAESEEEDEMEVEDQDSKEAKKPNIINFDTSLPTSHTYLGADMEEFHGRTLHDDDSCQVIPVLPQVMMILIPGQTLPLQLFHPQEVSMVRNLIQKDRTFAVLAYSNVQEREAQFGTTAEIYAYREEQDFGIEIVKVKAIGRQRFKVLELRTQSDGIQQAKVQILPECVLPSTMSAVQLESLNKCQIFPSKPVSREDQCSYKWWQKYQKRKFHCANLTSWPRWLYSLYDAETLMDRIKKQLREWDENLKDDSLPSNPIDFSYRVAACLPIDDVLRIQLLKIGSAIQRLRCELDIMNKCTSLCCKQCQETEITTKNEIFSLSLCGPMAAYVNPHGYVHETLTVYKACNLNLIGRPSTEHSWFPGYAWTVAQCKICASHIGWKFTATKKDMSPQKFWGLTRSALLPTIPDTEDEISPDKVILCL
T3 sequence (Q16531 whole entry partner): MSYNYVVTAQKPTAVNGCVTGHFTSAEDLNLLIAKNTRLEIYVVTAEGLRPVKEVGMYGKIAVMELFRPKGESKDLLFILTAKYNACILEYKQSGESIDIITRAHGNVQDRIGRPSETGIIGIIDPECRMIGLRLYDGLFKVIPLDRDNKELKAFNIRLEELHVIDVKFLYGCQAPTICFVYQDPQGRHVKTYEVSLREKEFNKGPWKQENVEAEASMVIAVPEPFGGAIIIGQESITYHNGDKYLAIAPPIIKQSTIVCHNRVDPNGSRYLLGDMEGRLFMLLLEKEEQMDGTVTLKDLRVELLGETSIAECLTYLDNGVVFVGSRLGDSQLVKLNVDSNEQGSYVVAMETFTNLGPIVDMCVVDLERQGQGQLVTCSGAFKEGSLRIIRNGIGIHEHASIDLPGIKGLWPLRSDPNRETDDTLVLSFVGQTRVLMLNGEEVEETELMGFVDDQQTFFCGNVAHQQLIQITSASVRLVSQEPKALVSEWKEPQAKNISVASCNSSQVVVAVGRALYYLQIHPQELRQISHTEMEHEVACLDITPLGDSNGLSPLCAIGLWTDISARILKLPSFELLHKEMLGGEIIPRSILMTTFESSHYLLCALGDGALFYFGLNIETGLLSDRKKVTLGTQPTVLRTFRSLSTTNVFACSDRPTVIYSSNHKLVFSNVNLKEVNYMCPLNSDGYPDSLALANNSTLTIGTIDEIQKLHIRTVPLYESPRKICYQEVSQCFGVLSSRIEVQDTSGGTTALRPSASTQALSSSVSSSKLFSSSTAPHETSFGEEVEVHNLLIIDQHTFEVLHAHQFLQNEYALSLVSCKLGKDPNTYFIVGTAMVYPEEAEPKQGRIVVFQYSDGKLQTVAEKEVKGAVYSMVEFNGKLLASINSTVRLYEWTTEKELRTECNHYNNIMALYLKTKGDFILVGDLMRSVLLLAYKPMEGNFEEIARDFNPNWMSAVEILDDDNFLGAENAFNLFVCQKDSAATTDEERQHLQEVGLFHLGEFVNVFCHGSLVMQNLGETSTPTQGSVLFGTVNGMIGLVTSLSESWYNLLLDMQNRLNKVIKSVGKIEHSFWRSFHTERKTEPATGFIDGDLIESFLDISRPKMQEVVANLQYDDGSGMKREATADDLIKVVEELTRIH
The assay can be described thus: GSPT1 degradation assay (Western blot, MV-4-11 cells). The note with it: MV4-11, 6-8 h. A digest of the protocol: as §1

Another assay deals with T4, CDK9 (Homo sapiens, UniProt P50750).
T4 construct: Whole cell extracts were prepared using RIPA buffer; endogenous in cells; host or cells: MV-4-11
T4 sequence (P50750 whole entry): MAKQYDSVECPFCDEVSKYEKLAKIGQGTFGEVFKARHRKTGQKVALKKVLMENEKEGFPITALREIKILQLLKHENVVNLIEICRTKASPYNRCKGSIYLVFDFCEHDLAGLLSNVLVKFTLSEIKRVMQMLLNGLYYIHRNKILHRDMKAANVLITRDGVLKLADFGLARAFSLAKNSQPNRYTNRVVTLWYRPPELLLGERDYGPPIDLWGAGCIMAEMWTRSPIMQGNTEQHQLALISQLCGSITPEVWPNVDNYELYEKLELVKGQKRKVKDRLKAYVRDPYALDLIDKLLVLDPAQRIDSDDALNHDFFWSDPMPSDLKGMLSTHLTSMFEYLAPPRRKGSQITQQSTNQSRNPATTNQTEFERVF
The assay can be described thus: CDK9 degradation assay (Western blot, MV-4-11 cells). Conditions: 6-8 h; for Dmax at 0.1 µM: MV4-11, 0.1 μM; for Dmax at 1 µM: MV4-11, 1 μM. The procedure, abridged: as §1

A further assay addresses T5, CDK16 (Homo sapiens, UniProt Q00536).
T5 construct: Whole cell extracts were prepared using RIPA buffer; endogenous in cells; host or cells: MV-4-11
The experiment in a line: CDK16 degradation assay (Western blot, MV-4-11 cells). Conditions: 6-8 h; for Dmax at 0.1 µM: MV4-11, 0.1 μM; for Dmax at 1 µM: MV4-11, 1 μM. The procedure, abridged: as §1

The test system of another assay is IL-1β. The experiment in a line: IL-1β inhibition assay, LPS-induced PBMCs / CD14+ monocytes (Meso Scale). The note with it: 1 h pretreatment, 100 ng/mL LPS 18-24 h. The procedure, abridged: (§2)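 Thawed human PBMCs or CD14+ mobilized peripheral blood monocytes, 200,000 cells/well in RPMI-1640/10% FBS, pretreated with compound or DMSO 1 h, then stimulated with 100 ng/mL LPS for 18-24 h. Supernatant cytokine measured by Meso Scale; % inhibition binned A–D (<50%, 50–70%, 70–90%, ≥90%), fold-change binned A–D (≤0.1, ≤0.5, ≤1, >1).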

In a further assay the test system is IL-6. The assay can be described thus: IL-6 inhibition assay, LPS-induced PBMCs / CD14+ monocytes (Meso Scale). Conditions: 1 h pretreatment, 100 ng/mL LPS 18-24 h. A digest of the protocol: as §2
The test system of a further assay is TNF-α. The experiment in a line: TNF-α inhibition assay, LPS-induced PBMCs / CD14+ monocytes (Meso Scale). Conditions: 1 h pretreatment, 100 ng/mL LPS 18-24 h. A digest of the protocol: as §2
A further assay deals with IL-2. The assay can be described thus: IL-2 fold-change assay, anti-CD3 stimulated PBMCs (Mesoscale). The note with it: PBMC, PBMCs on anti-human CD3, 24 h, fold difference from the DMSO control. The procedure, abridged: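 PBMCs (3-4 million cells/mL) stimulated on plates precoated with 1 μg/mL anti-human CD3 antibody, with compound, for 24 h. Supernatant IL-2 measured by Mesoscale. Result expressed as fold difference from DMSO control and reported in bins.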

A further assay has as its system MOLM-13 cells. The experiment in a line: MOLM-13 cell viability assay (CellTiter-Glo). Conditions: Homo sapiens, MOLM-13, 72 h, 3 days, read-out: MOLM-13 Cell Viability % DMSO at 1 μM. The procedure, abridged:
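MOLM-13 cells at 2500 cells/well were exposed to compound for 3 days at 37 °C. Viability was read by CellTiter-Glo luminescence and expressed as % of DMSO control, binned A (<50%), B (50–<70%), C (70–<90%) or D (≥90%).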

Molecules are shown by their SMILES. Where only a bound is given, the exact number is not on record here.

T2 sequence (P48729 whole entry): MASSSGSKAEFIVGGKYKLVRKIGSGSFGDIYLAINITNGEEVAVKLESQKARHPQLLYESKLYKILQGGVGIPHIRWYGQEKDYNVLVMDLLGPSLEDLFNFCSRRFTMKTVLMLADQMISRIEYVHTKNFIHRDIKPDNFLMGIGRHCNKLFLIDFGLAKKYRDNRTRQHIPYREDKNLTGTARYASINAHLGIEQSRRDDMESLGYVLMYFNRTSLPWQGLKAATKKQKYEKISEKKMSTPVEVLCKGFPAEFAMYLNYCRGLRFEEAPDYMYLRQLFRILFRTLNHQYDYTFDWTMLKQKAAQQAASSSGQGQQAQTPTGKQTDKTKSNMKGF
T2 sequence (Q96SW2 whole entry): as the sequence (Q96SW2 whole entry) above
T2 sequence (Q16531 whole entry partner): as the sequence (Q16531 whole entry partner) above
T5 sequence (Q00536 whole entry): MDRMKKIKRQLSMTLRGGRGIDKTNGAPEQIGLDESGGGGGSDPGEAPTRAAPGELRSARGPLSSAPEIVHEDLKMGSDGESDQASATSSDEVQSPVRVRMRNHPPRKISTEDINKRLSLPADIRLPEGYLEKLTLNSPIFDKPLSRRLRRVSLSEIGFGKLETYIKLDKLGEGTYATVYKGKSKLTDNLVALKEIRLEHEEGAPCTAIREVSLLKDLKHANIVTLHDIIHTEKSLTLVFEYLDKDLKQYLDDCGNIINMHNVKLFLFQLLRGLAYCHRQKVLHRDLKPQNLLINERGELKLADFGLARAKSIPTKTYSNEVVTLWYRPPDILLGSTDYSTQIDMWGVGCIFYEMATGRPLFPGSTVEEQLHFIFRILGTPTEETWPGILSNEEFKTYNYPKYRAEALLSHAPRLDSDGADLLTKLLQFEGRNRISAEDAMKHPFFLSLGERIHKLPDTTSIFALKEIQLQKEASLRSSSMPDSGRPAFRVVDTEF
T1 sequence (Q13422 whole entry): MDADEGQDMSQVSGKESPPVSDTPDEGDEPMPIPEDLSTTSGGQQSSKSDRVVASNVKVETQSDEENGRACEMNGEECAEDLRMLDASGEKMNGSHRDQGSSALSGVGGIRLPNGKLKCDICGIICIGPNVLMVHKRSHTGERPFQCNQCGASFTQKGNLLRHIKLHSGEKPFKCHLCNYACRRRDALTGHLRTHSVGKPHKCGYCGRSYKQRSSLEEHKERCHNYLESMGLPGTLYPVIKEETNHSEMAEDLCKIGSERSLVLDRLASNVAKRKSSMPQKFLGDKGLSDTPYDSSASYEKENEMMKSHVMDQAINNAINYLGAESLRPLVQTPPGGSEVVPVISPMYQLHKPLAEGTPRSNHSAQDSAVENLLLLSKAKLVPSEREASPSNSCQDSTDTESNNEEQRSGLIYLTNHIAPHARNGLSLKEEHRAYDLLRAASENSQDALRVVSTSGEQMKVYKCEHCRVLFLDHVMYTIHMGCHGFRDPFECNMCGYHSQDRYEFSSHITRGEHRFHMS
T1 sequence (Q96SW2 whole entry): as the sequence (Q96SW2 whole entry) above
T1 sequence (Q16531 whole entry partner): as the sequence (Q16531 whole entry partner) above

As for `CC(C)(C)c1cnc(CSc2cnc(NC(=O)C3CCN(CC(=O)NCCOCCOCCNCC(=O)NCc4cc5c(s4)C(=O)N(C4CCC(=O)NC4=O)C5)CC3)s2)o1` (centres unmarked) [Compound 34, N-(5-(((5-(tert-butyl)oxazol-2-yl)methyl)thio)thiazol-2-yl)-1-(1-(5-(2,6-dioxopiperidin-3-yl)-6-oxo-5,6-dihydro-4H-thieno[2,3-c]pyrrol-2-yl)-3,15-dioxo-8,11-dioxa-2,5,14-triazahexadecan-16-yl)piperidine-4-carboxamide], the Dmax at 1 µM on IKAROS is 50 to 75%; on CK1α, 25 to 50%; on GSPT1, 50 to 75%; on CDK9, not below 75%; on CDK16, less than 25%. The Dmax at 0.1 µM at CDK9 is less than 25%; on CDK16, 25 to 50%. The inhibition at 1 µM with IL-1β, with IL-6 and with TNF-α was 70 to 90% in each case. The fold induction at 1 µM with IL-2 was not above 0.1. In the assay with MOLM-13 cells, the viability at 1 µM was more than 90%.
Regarding `CC(C)(C)c1cnc(CSc2cnc(NC(=O)C3CCN(CC(=O)NCCOCCOCCOCCNCC(=O)NCc4scc5c4CN(C4CCC(=O)NC4=O)C5=O)CC3)s2)o1` (centres unmarked) [Compound 41, N-(5-(((5-(tert-butyl)oxazol-2-yl)methyl)thio)thiazol-2-yl)-1-(1-(5-(2,6-dioxopiperidin-3-yl)-4-oxo-5,6-dihydro-4H-thieno[3,4-c]pyrrol-1-yl)-3,18-dioxo-8,11,14-trioxa-2,5,17-triazanonadecan-19-yl)piperidine-4-carboxamide], the Dmax at 1 µM was 50 to 75% on IKAROS; 50 to 75% on CK1α; not below 75% at GSPT1; not below 75% at CDK9; less than 25% at CDK16. Also, the Dmax at 0.1 µM on CDK9 was 50 to 75%; at CDK16, less than 25%. In addition, the inhibition at 1 µM in the assay on IL-1β was more than 90%; in the assay on IL-6 it was more than 90%; in the assay with TNF-α it was 70 to 90%. The fold induction at 1 µM with IL-2 was 0.1 to 0.5. In the assay on MOLM-13 cells, the viability at 1 µM was 70 to 90%.
Take `Cn1ncc(-c2nc(N[C@H]3CC[C@H](NCCOCCOCCNCc4ccc(OCc5scc6c5CN([C@H]5CCC(=O)NC5=O)C6=O)cc4)CC3)ncc2Cl)c1CC1CC1` [Compound 67, (S)-3-(1-((4-(((2-(2-(2-(((1r,4r)-4-((5-chloro-4-(5-(cyclopropylmethyl)-1-methyl-1H-pyrazol-4-yl)pyrimidin-2-yl)amino)cyclohexyl)amino)ethoxy)ethoxy)ethyl)amino)methyl)phenoxy)methyl)-4-oxo-4H-thieno[3,4-c]pyrrol-5(6H)-yl)piperidine-2,6-dione]: the Dmax at 1 µM on IKAROS was in the range of 25 to 50%; at CK1α, 25 to 50%; at GSPT1, 50 to 75%. The inhibition at 1 µM with IL-1β, in the assay on IL-6 and in the assay on TNF-α was more than 90% in each case. In addition, the fold induction at 1 µM in the assay with IL-2 was in the range of 0.5 to 1. For the same compound, the viability at 1 µM with MOLM-13 cells was more than 90%.
